Test results as given in ChEMBL document CHEMBL5724914, “Linking interpersonal differences in gut microbiota composition and drug biotransformation activity” (2024).

Experiments:
[1] = human gut metagenome, 24 h, 2 µM
[2] = (§1) The drug is tested on WLS-082 corresponding to human gut metagenome with ENA study accession number: PRJEB37062 and ENA sample accession number: ERS12561751 for biotransformation under anaerobic condition. The drug concentrations were measured over 9 timepoints collected between 0 and 24 hours of incubation by liquid-chromatography-coupled mass spectrometry (LC–MS); details: 2 µM
[3] = human gut metagenome, 24 h, 2 µM; remark: listed apart in the source
[4] = human gut metagenome, 24 h, 2 µM; remark: listed apart in the source
[5] = as §1, with “Z-025” for “WLS-082”, “rabbit” for “human”, “ERS12561824” for “ERS12561751”; details: 2 µM
[6] = as §1, with “Z-004” for “WLS-082”, “to” for “to human gut”, “ERS12561804” for “ERS12561751”; details: 2 µM
[7] = human gut metagenome, 24 h, 2 µM; remark: listed apart in the source
[8] = human gut metagenome, 24 h, 2 µM; remark: listed apart in the source
[9] = human gut metagenome, 24 h, 2 µM; remark: listed apart in the source
[10] = as §1, with “WLS-350” for “WLS-082”, “ERS12561789” for “ERS12561751”; details: 2 µM
[11] = as §1, with “Z-005” for “WLS-082”, “to” for “to human gut”, “ERS12561805” for “ERS12561751”; details: 2 µM
[12] = human gut metagenome, 24 h, 2 µM; remark: listed apart in the source
[13] = human gut metagenome, 24 h, 2 µM; remark: listed apart in the source
[14] = as §1, with “WLS-006” for “WLS-082”, “ERS12561741” for “ERS12561751”; details: 2 µM
[15] = human gut metagenome, 24 h, 2 µM; remark: listed apart in the source
[16] = as §1, with “Z-030” for “WLS-082”, “mouse” for “human”, “ERS12561829” for “ERS12561751”; details: 2 µM
[17] = as §1, with “Z-020” for “WLS-082”, “rabbit” for “human”, “ERS12561819” for “ERS12561751”; details: 2 µM
[18] = human gut metagenome, 24 h, 2 µM; remark: listed apart in the source
[19] = as §1, with “WLS-073” for “WLS-082”, “ERS12561749” for “ERS12561751”; details: 2 µM
[20] = human gut metagenome, 24 h, 2 µM; remark: listed apart in the source
Further: call rule not given here.

Row | Compound | Bacterial Biotransformation [1] | Bacterial Biotransformation [2] | Bacterial Biotransformation [3] | Bacterial Biotransformation [4] | Bacterial Biotransformation [5] | Bacterial Biotransformation [6] | Bacterial Biotransformation [7] | Bacterial Biotransformation [8] | Bacterial Biotransformation [9] | Bacterial Biotransformation [10] | Bacterial Biotransformation [11] | Bacterial Biotransformation [12] | Bacterial Biotransformation [13] | Bacterial Biotransformation [14] | Bacterial Biotransformation [15] | Bacterial Biotransformation [16] | Bacterial Biotransformation [17] | Bacterial Biotransformation [18] | Bacterial Biotransformation [19] | Bacterial Biotransformation [20]
1 | COc1cc2nc(N3CCN(C(=O)c4ccco4)CC3)nc(N)c2cc1OC [PRAZOSIN] | Compound metabolized | Compound metabolized | Compound metabolized | Compound NOT metabolized | Compound NOT metabolized | Compound NOT metabolized | Compound NOT metabolized | Compound NOT metabolized | Compound NOT metabolized | Compound NOT metabolized | Compound NOT metabolized | Compound NOT metabolized | Compound NOT metabolized | Compound NOT metabolized | Compound NOT metabolized | Compound NOT metabolized | Compound NOT metabolized | Compound metabolized | Compound metabolized | Compound metabolized
2 | CS(=O)(=O)O.OC(CCN1CCCCC1)(c1ccccc1)c1ccccc1 [PRIDINOL METHANESULFONATE] | Compound NOT metabolized | Compound NOT metabolized | Compound metabolized | Compound NOT metabolized | Compound NOT metabolized | Compound NOT metabolized | Compound NOT metabolized | Compound NOT metabolized | Compound NOT metabolized | Compound NOT metabolized | Compound NOT metabolized | Compound metabolized | Compound NOT metabolized | Compound metabolized | Compound NOT metabolized | Compound NOT metabolized | Compound NOT metabolized | Compound metabolized | Compound NOT metabolized | Compound metabolized
3 | CC(CN1c2ccccc2Sc2ccccc21)N(C)C (stereo not given) [PROMETHAZINE] | Compound NOT metabolized | Compound NOT metabolized | Compound NOT metabolized | Compound NOT metabolized | Compound metabolized | Compound NOT metabolized | Compound NOT metabolized | Compound NOT metabolized | Compound metabolized | Compound metabolized | Compound NOT metabolized | Compound NOT metabolized | Compound NOT metabolized | Compound metabolized | Compound NOT metabolized | Compound NOT metabolized | Compound NOT metabolized | Compound metabolized | Compound NOT metabolized | Compound metabolized
4 | OCCOCCN1CCN(C2=Nc3ccccc3Sc3ccccc32)CC1 [QUETIAPINE] | Compound NOT metabolized | Compound NOT metabolized | Compound metabolized | Compound NOT metabolized | Compound metabolized | Compound metabolized | Compound NOT metabolized | Compound NOT metabolized | Compound metabolized | Compound NOT metabolized | Compound NOT metabolized | Compound metabolized | Compound NOT metabolized | Compound NOT metabolized | Compound metabolized | Compound NOT metabolized | Compound NOT metabolized | Compound metabolized | Compound NOT metabolized | Compound NOT metabolized
5 | CCC(=O)NCC[C@@H]1CCc2ccc3c(c21)CCO3 [RAMELTEON] | Compound metabolized | Compound metabolized | Compound metabolized | Compound metabolized | Compound NOT metabolized | Compound metabolized | Compound NOT metabolized | Compound NOT metabolized | Compound metabolized | Compound metabolized | Compound NOT metabolized | Compound NOT metabolized | Compound metabolized | Compound metabolized | Compound metabolized | Compound NOT metabolized | Compound metabolized | Compound metabolized | Compound NOT metabolized | Compound metabolized
6 | CNC(=C[N+](=O)[O-])NCCSCc1ccc(CN(C)C)o1 [RANITIDINE] | Compound metabolized | Compound metabolized | Compound NOT metabolized | Compound NOT metabolized | Compound NOT metabolized | Compound metabolized | Compound NOT metabolized | Compound metabolized | Compound NOT metabolized | Compound NOT metabolized | Compound NOT metabolized | Compound NOT metabolized | Compound metabolized | Compound metabolized | Compound NOT metabolized | Compound NOT metabolized | Compound metabolized | Compound NOT metabolized | Compound NOT metabolized | Compound metabolized
7 | Nc1nc2ccc(OC(F)(F)F)cc2s1 [RILUZOLE] | Compound NOT metabolized | Compound metabolized | Compound metabolized | Compound metabolized | Compound NOT metabolized | Compound metabolized | Compound metabolized | Compound NOT metabolized | Compound NOT metabolized | Compound NOT metabolized | Compound metabolized | Compound metabolized | Compound metabolized | Compound metabolized | Compound NOT metabolized | Compound NOT metabolized | Compound metabolized | Compound metabolized | Compound metabolized | Compound metabolized
8 | CC(C)c1nc(CN(C)C(=O)N[C@H](C(=O)N[C@@H](Cc2ccccc2)C[C@H](O)[C@H](Cc2ccccc2)NC(=O)OCc2cncs2)C(C)C)cs1 [RITONAVIR] | Compound NOT metabolized | Compound metabolized | Compound metabolized | Compound metabolized | Compound metabolized | Compound NOT metabolized | Compound metabolized | Compound NOT metabolized | Compound metabolized | Compound NOT metabolized | Compound metabolized | Compound metabolized | Compound metabolized | Compound metabolized | Compound NOT metabolized | Compound NOT metabolized | Compound metabolized | Compound metabolized | Compound metabolized | Compound metabolized
9 | CC(C)NCC(O)c1ccc(NS(C)(=O)=O)cc1 (stereo not given) [SOTALOL] | Compound NOT metabolized | Compound NOT metabolized | Compound NOT metabolized | Compound NOT metabolized | Compound NOT metabolized | Compound NOT metabolized | Compound NOT metabolized | Compound NOT metabolized | Compound NOT metabolized | Compound NOT metabolized | Compound NOT metabolized | Compound NOT metabolized | Compound NOT metabolized | Compound NOT metabolized | Compound NOT metabolized | Compound NOT metabolized | Compound NOT metabolized | Compound NOT metabolized | Compound NOT metabolized | Compound NOT metabolized
